Test results as given in US20230157296A1, “METHODS OF REDUCING FUSARIUM CONTAMINATION” (Taminco BV, priority 2020, published 2023).

Assays:
[1] = system: F. oxysporum f. sp. cubense (Foc TR4); assay: Panama disease analysis of soil samples after metam sodium field injection; format: in vivo, Fusarium oxysporum f. sp. Cubense Tropical Race 4
Method: Metam Sodium Application. Metam sodium 510 SL (equivalent to 42% w/w) was applied to soil at the following doses: 0 liters per hectare (L/ha), 750 L/ha, 1500 L/ha, 2250 L/ha, 3000 L/ha.
Prior to injection, soil was prepared using a rototiller to break the soil structure from 0 cm to 80 cm deep, allowing for the smooth and even injection application by an injection machine. The soil was then leveled and made uniform, and the metam sodium was applied at two depths: 30 cm and 60 cm, using injection methods. The temperature was at a minimum of 10° C. and soil humidity was between 50 and 60% holding capacity, allowing the applied product to transform from metam sodium (liquid) to MITC (gas).
The application was made using an injection machine wherein the machine lowered shanks and began moving forward such that the shanks lowered to a depth of 60 cm and injectors applied the metam sodium into the soil. When the injection at 60 cm was complete, the process was repeated for the entire field at 30 cm. The treated soil in the field was then sealed using a packer roller (which was part of the injection machinery, located at the back end of the machine), after each application.
Soil Analysis. Soil samples were obtained at 20, 40, and 60 cm before application and every 24 hours beginning 48 hours after application, for seven days.
Plant Pathology Analysis. Soil samples used for Panama Disease and nematode analyses were aseptically isolated in culture medium and incubated for seven days at room temperature. Organisms were identified as follows: 20 grams of composite soil sample was diluted with 40 mL distilled water (dH2O); 1 drop of Tween 20 detergent was added, and the sample mixed. A 1 mL aliquot was taken from the solution and diluted with 9 mL dH2O; three further serial dilutions were made. From each dilution, 100 µL were spread on solid Komada growth medium (Sun et al., Phytopathology 68: 1672-1673, 1978). Growth could be seen 7 days after inoculation.

Foc TR4 chlamydospores = assay: Efficacy of metam sodium on chlamydospores of Foc TR4 in vitro (colonies on PDA plates); format: cell-based, Fusarium oxysporum f. sp. Cubense Tropical Race 4
Method: Foc TR4 chlamydospores were extracted from infested soil and incubated with a dilution series of metam sodium for 5 min and 60 min at room temperature. Thereafter, the samples were diluted 10X to get reduction of the treatment and sufficient dilution of chlamydospores to avoid lack of resolution when grown on plate. Aliquots of 100 µl were plated on PDA plates in duplicate and incubated for 3 days at 25° C. Plates were photographed and scored.

CNC(=S)[S-].[Na+] [metam sodium, sodium N-methyldithiocarbamate]
Panama Disease F. oxysporum f. sp. cubense ([1]; Day 4, 20 cm, T4 2250 L/ha): - | Panama Disease F. oxysporum f. sp. cubense ([1]; Day 4, 20 cm, T5 3000 L/ha): - | Panama Disease F. oxysporum f. sp. cubense ([1]; Day 4, 40 cm, T2 750 L/ha): - | Panama Disease F. oxysporum f. sp. cubense ([1]; Day 4, 40 cm, T3 1500 L/ha): - | Panama Disease F. oxysporum f. sp. cubense ([1]; Day 4, 40 cm, T4 2250 L/ha): - | Panama Disease F. oxysporum f. sp. cubense ([1]; Day 4, 40 cm, T5 3000 L/ha): - | Panama Disease F. oxysporum f. sp. cubense ([1]; Day 4, 60 cm, T2 750 L/ha): - | Panama Disease F. oxysporum f. sp. cubense ([1]; Day 4, 60 cm, T3 1500 L/ha): - | Panama Disease F. oxysporum f. sp. cubense ([1]; Day 4, 60 cm, T4 2250 L/ha): - | Panama Disease F. oxysporum f. sp. cubense ([1]; Day 4, 60 cm, T5 3000 L/ha): - | Panama Disease F. oxysporum f. sp. cubense ([1]; Day 5, 20 cm, T2 750 L/ha): - | Panama Disease F. oxysporum f. sp. cubense ([1]; Day 5, 20 cm, T3 1500 L/ha): - | Panama Disease F. oxysporum f. sp. cubense ([1]; Day 5, 20 cm, T4 2250 L/ha): - | Panama Disease F. oxysporum f. sp. cubense ([1]; Day 5, 20 cm, T5 3000 L/ha): - | Panama Disease F. oxysporum f. sp. cubense ([1]; Day 5, 40 cm, T2 750 L/ha): - | Panama Disease F. oxysporum f. sp. cubense ([1]; Day 5, 40 cm, T3 1500 L/ha): - | Panama Disease F. oxysporum f. sp. cubense ([1]; Day 5, 40 cm, T4 2250 L/ha): - | Panama Disease F. oxysporum f. sp. cubense ([1]; Day 5, 40 cm, T5 3000 L/ha): - | Panama Disease F. oxysporum f. sp. cubense ([1]; Day 5, 60 cm, T2 750 L/ha): - | Panama Disease F. oxysporum f. sp. cubense ([1]; Day 5, 60 cm, T3 1500 L/ha): - | Panama Disease F. oxysporum f. sp. cubense ([1]; Day 5, 60 cm, T4 2250 L/ha): - | Panama Disease F. oxysporum f. sp. cubense ([1]; Day 5, 60 cm, T5 3000 L/ha): - | Panama Disease F. oxysporum f. sp. cubense ([1]; Day 6, 20 cm, T2 750 L/ha): - | Panama Disease F. oxysporum f. sp. cubense ([1]; Day 6, 20 cm, T3 1500 L/ha): - | Panama Disease F. oxysporum f. sp. cubense ([1]; Day 6, 20 cm, T4 2250 L/ha): - | Panama Disease F. oxysporum f. sp. cubense ([1]; Day 6, 20 cm, T5 3000 L/ha): - | Panama Disease F. oxysporum f. sp. cubense ([1]; Day 6, 40 cm, T2 750 L/ha): - | Panama Disease F. oxysporum f. sp. cubense ([1]; Day 6, 40 cm, T3 1500 L/ha): - | Panama Disease F. oxysporum f. sp. cubense ([1]; Day 6, 40 cm, T4 2250 L/ha): - | Panama Disease F. oxysporum f. sp. cubense ([1]; Day 6, 40 cm, T5 3000 L/ha): - | Panama Disease F. oxysporum f. sp. cubense ([1]; Day 6, 60 cm, T2 750 L/ha): - | Panama Disease F. oxysporum f. sp. cubense ([1]; Day 6, 60 cm, T3 1500 L/ha): - | Panama Disease F. oxysporum f. sp. cubense ([1]; Day 6, 60 cm, T4 2250 L/ha): - | Panama Disease F. oxysporum f. sp. cubense ([1]; Day 6, 60 cm, T5 3000 L/ha): - | Panama Disease F. oxysporum f. sp. cubense ([1]; Day 7, 20 cm, T2 750 L/ha): - | Panama Disease F. oxysporum f. sp. cubense ([1]; Day 7, 20 cm, T3 1500 L/ha): - | Panama Disease F. oxysporum f. sp. cubense ([1]; Day 7, 20 cm, T4 2250 L/ha): - | Panama Disease F. oxysporum f. sp. cubense ([1]; Day 7, 20 cm, T5 3000 L/ha): - | Panama Disease F. oxysporum f. sp. cubense ([1]; Day 7, 40 cm, T2 750 L/ha): - | Panama Disease F. oxysporum f. sp. cubense ([1]; Day 7, 40 cm, T3 1500 L/ha): - | Panama Disease F. oxysporum f. sp. cubense ([1]; Day 7, 40 cm, T4 2250 L/ha): - | Panama Disease F. oxysporum f. sp. cubense ([1]; Day 7, 40 cm, T5 3000 L/ha): - | Panama Disease F. oxysporum f. sp. cubense ([1]; Day 7, 60 cm, T2 750 L/ha): - | Panama Disease F. oxysporum f. sp. cubense ([1]; Day 7, 60 cm, T3 1500 L/ha): - | Panama Disease F. oxysporum f. sp. cubense ([1]; Day 7, 60 cm, T4 2250 L/ha): - | Panama Disease F. oxysporum f. sp. cubense ([1]; Day 7, 60 cm, T5 3000 L/ha): - | soil contamination: Foc TR4 detection ([1]; any of the treated groups (750-3000 L/ha), any day post application): No Foc TR4 was detected | reducing the number of surviving chlamydospores, measured as growing colonies (Foc TR4 chlamydospores; 100X dilution, prolonged incubation (60 min vs 5 min)): more effective | reduction in viability of Foc TR4 chlamydospores (Foc TR4 chlamydospores; First test, dilutions from 1000 up to 10 X 10^6-fold, 60 min): No significant reduction in viability | efficacy on chlamydospores (colonies on PDA plates) (Foc TR4 chlamydospores; Second test, 10X and 100X dilutions): (partially) effective | number of chlamydospores that survived (Foc TR4 chlamydospores; Second test, dilutions of 1000X and more): did not affect | efficacy on chlamydospores (colonies on PDA plates) (Foc TR4 chlamydospores; dilution of 10X, incubation time 5 minutes): effective | efficacy on chlamydospores (colonies on PDA plates) (Foc TR4 chlamydospores; dilution of 100X, both 5 and 60 minutes): less effective | effectiveness against Foc TR4 chlamydospores (Foc TR4 chlamydospores; in vitro conditions, dependent on high concentrations): effective
